According to PMC4282330, “The yeast enzyme Eht1 is an octanoyl-CoA:ethanol acyltransferase that also functions as a thioesterase” (Yeast (Chichester, England), 2014):
Several values for one entry are separate records, joined by “and”; a condition that tells them apart may be missing. Equal values may be shown once.

T1: Eht1 (Saccharomyces cerevisiae, UniProt P38295)
T1 construct: 55 kDa
T1 sequence (P38295 1-451): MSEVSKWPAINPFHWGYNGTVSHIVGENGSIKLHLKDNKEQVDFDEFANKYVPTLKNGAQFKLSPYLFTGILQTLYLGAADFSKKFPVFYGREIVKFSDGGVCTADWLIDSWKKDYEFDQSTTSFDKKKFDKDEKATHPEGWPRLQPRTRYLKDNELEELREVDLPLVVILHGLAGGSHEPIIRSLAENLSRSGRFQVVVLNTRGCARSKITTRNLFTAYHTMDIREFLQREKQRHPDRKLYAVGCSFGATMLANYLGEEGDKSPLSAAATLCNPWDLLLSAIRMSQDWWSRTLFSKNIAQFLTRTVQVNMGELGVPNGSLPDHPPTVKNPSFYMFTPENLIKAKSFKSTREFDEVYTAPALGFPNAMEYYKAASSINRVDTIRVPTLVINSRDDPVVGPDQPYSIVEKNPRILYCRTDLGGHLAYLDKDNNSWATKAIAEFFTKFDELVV


Tests used:
[1] = biological target: T1, Eht1; assay: coupled alpha-ketoglutarate dehydrogenase assay of CoA release (NADH); format: biochemical; conditions: 0.125% ethanol, pH 7.4, 25 °C; assay insensitive to ethanol (thioesterase)
[2] = substrate: CCCCCCCC(=O)SCCNC(=O)CCNC(=O)[C@H](O)C(C)(C)COP(=O)(O)OP(=O)(O)OC[C@H]1O[C@@H](n2cnc3c(N)ncnc32)[C@H](O)[C@@H]1OP(=O)(O)O; assay: as above; format: biochemical, Saccharomyces cerevisiae; conditions: 0.125% ethanol, pH 7.4, 25 °C, assay insensitive to ethanol (thioesterase)
Excerpt: coupled alpha-ketoglutarate dehydrogenase assay of CoA release (NADH) on Eht1 | the preferred substrate for Eht1 was octanoyl-CoA (largest kcat/KM)

[3] = biological target: the molecule itself; assay: native gel or EMSA; blue native PAGE, 4–16% acrylamide Bis–Tris gels, Coomassie G-250 added to samples at 0.005%; purified Eht1 in FC12
[4] = biological target: the molecule itself; assay: SEC; Superdex 200 10/300 GL, 0.5 ml/min, in Column Buffer (50 mM sodium phosphate, pH 7.4, 150 mM NaCl, 5% glycerol, 0.1% FC-12); apparent size relative to molecular weight standards

| Molecule | KM [1] | other results |
| --- | --- | --- |
| CCCC(=O)SCCNC(=O)CCNC(=O)[C@H](O)C(C)(C)COP(=O)(O)OP(=O)(O)OC[C@H]1O[C@@H](n2cnc3c(N)ncnc32)[C@H](O)[C@@H]1OP(=O)(O)O [C4, acyl-CoA of chain length C4] | acyl-CoA substrates of chain length C4–C14 followed classical Michaelis–Menten kinetics |  |
| CCCCCCCCCCCCCC(=O)SCCNC(=O)CCNC(=O)[C@H](O)C(C)(C)COP(=O)(O)OP(=O)(O)OC[C@H]1O[C@@H](n2cnc3c(N)ncnc32)[C@H](O)[C@@H]1OP(=O)(O)O [C14, acyl-CoA of chain length C14] | acyl-CoA substrates of chain length C4–C14 followed classical Michaelis–Menten kinetics |  |
| CCCCCCCCCC(=O)SCCNC(=O)CCNC(=O)[C@H](O)C(C)(C)COP(=O)(O)OP(=O)(O)OC[C@H]1O[C@@H](n2cnc3c(N)ncnc32)[C@H](O)[C@@H]1OP(=O)(O)O [decanoyl-CoA] | acyl-CoA substrates of chain length C4–C14 followed classical Michaelis–Menten kinetics |  |
| CCCCCCCCCCCC(=O)SCCNC(=O)CCNC(=O)[C@H](O)C(C)(C)COP(=O)(O)OP(=O)(O)OC[C@H]1O[C@@H](n2cnc3c(N)ncnc32)[C@H](O)[C@@H]1OP(=O)(O)O [acyl-CoA within chain lengths C4–C14 (C12)] | acyl-CoA substrates of chain length C4–C14 followed classical Michaelis–Menten kinetics |  |
| ethanol hexanoyl transferase 1 (Eht1) (enzyme, Saccharomyces cerevisiae, UniProt P38295 1-451, looked up, Theoretical mass of the recombinant protein is printed as 55 kDa; also called recombinant Eht1; YBR177C gene product; source: yeast, plasmid pYES2CT, galactose-induced; purified from FC12-solubilized sedimenting membranes (Ni-NTA)) MSEVSKWPAINPFHWGYNGTVSHIVGENGSIKLHLKDNKEQVDFDEFANKYVPTLKNGAQFKLSPYLFTGILQTLYLGAADFSKKFPVFYGREIVKFSDGGVCTADWLIDSWKKDYEFDQSTTSFDKKKFDKDEKATHPEGWPRLQPRTRYLKDNELEELREVDLPLVVILHGLAGGSHEPIIRSLAENLSRSGRFQVVVLNTRGCARSKITTRNLFTAYHTMDIREFLQREKQRHPDRKLYAVGCSFGATMLANYLGEEGDKSPLSAAATLCNPWDLLLSAIRMSQDWWSRTLFSKNIAQFLTRTVQVNMGELGVPNGSLPDHPPTVKNPSFYMFTPENLIKAKSFKSTREFDEVYTAPALGFPNAMEYYKAASSINRVDTIRVPTLVINSRDDPVVGPDQPYSIVEKNPRILYCRTDLGGHLAYLDKDNNSWATKAIAEFFTKFDELVV |  | Km [2]: 1.9 ± 0.6 µM; kcat [2]: 0.28 ± 0.02 s⁻¹; stoichiometry N [3]: ~2 and ~4; stoichiometry N [4]: ~5 |
